{"source": "patent US20060063786A1", "about": "(priority 2002, published 2006)", "test_system": "Pyricularia oryzae", "assay_type": "in vivo", "conditions": "individual active compound, protective, inoculated next day, rated after 6 days", "note": "Read-outs that look alike come from different tables or passages of the source."}
{"smiles": "CC1CCN(c2c(-c3c(F)cc(F)cc3F)c(Cl)nc3ncnn23)CC1", "note": "[II, 5-chloro-7-(4-methylpiperidin-1-yl)-6-(2,4,6-trifluorophenyl)-[1,2,4]triazolo[1,5-a]pyrimidine]", "values": [{"measurement": "Efficacy in % of the untreated control", "setting": "1 ppm in the spray liquor", "value": "3 % of the untreated control"}, {"measurement": "Efficacy in % of the untreated control", "setting": "4 ppm in the spray liquor", "value": "52 % of the untreated control"}]}
{"smiles": "CC1CCN(c2c(-c3c(F)cccc3Cl)c(Cl)nc3ncnn23)CC1", "note": "[A]", "values": [{"measurement": "Efficacy in % of the untreated control", "setting": "1 ppm in the spray liquor", "value": "0 % of the untreated control"}, {"measurement": "Efficacy in % of the untreated control", "setting": "4 ppm in the spray liquor", "value": "28 % of the untreated control"}]}
{"smiles": "CNC(=O)/C(=N/OC)c1ccccc1CO/N=C(C)/C(=N/OC)C(/C)=N/OC", "note": "[I (orysastrobin), 2-[2-(2,3-bismethoxyimino-1-methylbutylideneamino-oxymethyl)phenyl]-2-methoxyimino-N-methylacetamide]", "values": [{"measurement": "Efficacy in % of the untreated control", "setting": "0.25 ppm in the spray liquor", "value": "0 % of the untreated control"}, {"measurement": "Efficacy in % of the untreated control", "setting": "4 ppm in the spray liquor", "value": "28 % of the untreated control"}]}
{"smiles": "C[C@H](Nc1c(-c2c(F)cc(F)cc2F)c(Cl)nc2ncnn12)C(F)(F)F", "note": "[B]", "values": [{"measurement": "Efficacy in % of the untreated control", "setting": "1 ppm in the spray liquor", "value": "28 % of the untreated control"}, {"measurement": "Efficacy in % of the untreated control", "setting": "4 ppm in the spray liquor", "value": "52 % of the untreated control"}]}
